One may read the IC50 as the point on the concentration scale where inhibition reaches its midpoint.

The experiment deals with T1, m-Calpin (Rattus norvegicus, UniProt Q07009).
T1 construct: m-Calpin was purified from brains of rats; from tissue; host or cells: rat brain
T1 sequence (Q07009 1-700): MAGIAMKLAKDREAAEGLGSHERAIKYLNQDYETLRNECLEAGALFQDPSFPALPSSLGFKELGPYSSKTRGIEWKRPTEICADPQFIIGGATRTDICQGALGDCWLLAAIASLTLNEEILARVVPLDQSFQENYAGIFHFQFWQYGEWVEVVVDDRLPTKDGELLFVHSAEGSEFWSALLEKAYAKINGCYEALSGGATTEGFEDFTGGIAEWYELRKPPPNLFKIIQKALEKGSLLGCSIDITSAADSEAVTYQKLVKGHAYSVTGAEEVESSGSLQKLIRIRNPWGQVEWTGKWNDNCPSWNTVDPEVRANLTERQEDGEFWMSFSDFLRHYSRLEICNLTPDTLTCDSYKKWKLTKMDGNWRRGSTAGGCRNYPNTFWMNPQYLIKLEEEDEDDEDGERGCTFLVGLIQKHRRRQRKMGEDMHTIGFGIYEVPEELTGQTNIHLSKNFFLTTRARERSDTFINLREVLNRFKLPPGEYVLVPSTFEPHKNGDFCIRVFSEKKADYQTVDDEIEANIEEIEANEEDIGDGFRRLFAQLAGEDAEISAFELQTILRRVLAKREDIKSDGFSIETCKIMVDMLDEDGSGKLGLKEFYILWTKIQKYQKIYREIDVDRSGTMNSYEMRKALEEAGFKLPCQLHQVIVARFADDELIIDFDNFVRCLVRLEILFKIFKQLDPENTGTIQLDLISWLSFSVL
T1 sequence (Q64537 1-270 partner): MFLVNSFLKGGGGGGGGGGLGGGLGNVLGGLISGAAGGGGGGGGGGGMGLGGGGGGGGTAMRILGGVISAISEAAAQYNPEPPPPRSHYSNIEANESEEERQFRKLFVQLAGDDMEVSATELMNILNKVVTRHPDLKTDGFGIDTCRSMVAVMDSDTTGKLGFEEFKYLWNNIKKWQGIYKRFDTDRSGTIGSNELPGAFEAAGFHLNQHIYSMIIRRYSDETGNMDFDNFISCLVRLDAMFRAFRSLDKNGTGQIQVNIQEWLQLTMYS
Description: Measurement of calpain inhibitory activity. The experiment is classed as biochemical. Particulars: m-calpain purified from brains of rats. The method, then:
Measurement of calpain inhibitory activity
For comparison, inhibitory activity of leupeptin (N-terminus is in the form of amide) and calpeptin (N-terminus is in the form of carbamate) was also measured.
Take `CC(=O)N[C@@H](CC(C)C)C(=O)N[C@@H](CC(C)C)C(=O)N[C@H](C=O)CCCNC(=N)N` [Leupeptin]: the IC50 amounted to 0.36 µM. The result for `CC(C)C[C@H](NS(=O)(=O)c1ccccc1)C(=O)N[C@H](C=O)C(C)C` [Example 1, N-phenylsulfonyl-L-leucyl-L-valinal] reads 0.011 µM; that for `CC(C)C[C@H](NS(=O)(=O)c1cccnc1)C(=O)N[C@H](C=O)C(C)C` [Example 2, N-3-pyridylsulfonyl-L-leucyl-L-valinal], 0.0065 µM; that for `CCCC[C@@H](C=O)NC(=O)[C@H](CC(C)C)NC(=O)OCc1ccccc1` [Calpeptin], 0.046 µM.

The values above are taken from patent US5506243A, “Sulfonamide derivatives” (Mitsubishi Kasei Corporation, priority 1993, dated 1996).
